Experimental data taken from patent US9315494B2, “Alkyl-amide-substituted pyridyl compounds useful as modulators of IL-12, IL-23 and/or IFNα responses” (Bristol-Myers Squibb Company, priority 2012, dated 2016).
pIC50: −log10 of the molar value.

What was measured:
[1] = system: IL-23-stimulated STAT-dependent luciferase reporter in Kit225 T cells; experiment: Kit225 T cell assay, IL-23 stimulated STAT-dependent luciferase reporter; assay type: cell-based, human; settings: Kit225 T cells, 20 ng/mL human recombinant IL-23, 5-6 hours, luciferase; read-out: IL23 (Kit225 T Cell Inhibition Data)
Procedure: (§1) Kit225 T cells with a stably-integrated STAT-dependent luciferase reporter were plated in RPMI (Gibco) containing 10% heat-inactivated FBS (Gibco) and 100 U/mL PenStrep (Gibco). The cells were then stimulated with either 20 ng/mL human recombinant IL-23 or 200 U/mL human recombinant IFNα (PBL InterferonSource) for 5-6 hours. Luciferase expression was measured using the STEADY-GLO® Luciferase Assay System (Promega) according to the manufacturer's instructions.

[2] = system: IFNα-stimulated STAT-dependent luciferase reporter in Kit225 T cells; experiment: Kit225 T cell assay, IFNα stimulated STAT-dependent luciferase reporter; assay type: cell-based, human; settings: Kit225 T cells, 200 U/mL human recombinant IFNα, 5-6 hours, luciferase; read-out: IFNα (Kit225 T Cell Inhibition Data)
Procedure: as §1

Compound | pIC50 [1] | pIC50 [2]
CNC(=O)c1cnc(Nc2ccc(F)cn2)cc1Nc1ccccc1S(C)(=O)=O [Example 1] | 7.01 | 7.15
CNC(=O)c1cnc(Nc2ccccn2)cc1Nc1ccccc1S(C)(=O)=O [Example 3] | 7.21 | 7.15
CNC(=O)c1cnc(Nc2cc(C)ccn2)cc1Nc1ccccc1S(C)(=O)=O [Example 4] | 7.44 | 7.52
CNC(=O)c1cnc(Nc2cc(C#N)ccn2)cc1Nc1ccccc1S(C)(=O)=O [Example 5] | 7.09 | 7.30
CNC(=O)c1cnc(Nc2ccc(F)cn2)cc1Nc1ccc(OC)cc1S(C)(=O)=O [Example 6] | 7.04 | 6.96
CNC(=O)c1cnc(Nc2ccc(N3CCOCC3)cn2)cc1Nc1ccc(OC)cc1S(C)(=O)=O [Example 7] | 6.81 | 7.00
CNC(=O)c1cnc(Nc2ccccn2)cc1Nc1ccc(OC)cc1S(C)(=O)=O [Example 8] | 6.84 | 7.22
CNC(=O)c1cnc(Nc2ccc(N3CCOCC3)cn2)cc1Nc1ccccc1S(C)(=O)=O [Example 9] | 7.01 | 7.40
CNC(=O)c1cnc(Nc2ccccn2)cc1Nc1ccc(F)cc1S(C)(=O)=O [Example 10] | 6.66 | 6.92
CNC(=O)c1cnc(Nc2ccc(F)cn2)cc1Nc1ccc(Cl)cc1S(C)(=O)=O [Example 11] | 6.79 | 7.22
CNC(=O)c1cnc(Nc2ccccn2)cc1Nc1ccc(Cl)cc1S(C)(=O)=O [Example 12] | 6.96 | 7.30
CNC(=O)c1cnc(Nc2ccc(F)cn2)cc1Nc1ccc(F)cc1S(C)(=O)=O [Example 13] | 6.59 | 6.92
CNC(=O)c1cnc(Nc2cc(C(F)(F)F)ccn2)cc1Nc1ccccc1S(C)(=O)=O [Example 14] | 6.87 | 6.96
CNC(=O)c1cnc(Nc2cc(OC)ccn2)cc1Nc1ccccc1S(C)(=O)=O [Example 15] | 6.97 | 7.10
CNC(=O)c1cnc(Nc2cccc(C(F)(F)F)n2)cc1Nc1ccccc1S(C)(=O)=O [Example 16] | 6.75 | 7.00
CNC(=O)c1cnc(Nc2ccc(Cl)cn2)cc1Nc1ccccc1S(C)(=O)=O [Example 17] | 6.98 | 7.00
CNC(=O)c1cnc(Nc2cc(C(C)(C)C)ccn2)cc1Nc1ccccc1S(C)(=O)=O [Example 18] | 5.95 | 6.40
CNC(=O)c1cnc(Nc2cc(S(=O)(=O)N(C)C)ccn2)cc1Nc1ccccc1S(C)(=O)=O [Example 19] | 6.13 | 6.37
CNC(=O)c1cnc(Nc2cccc(F)n2)cc1Nc1ccccc1S(C)(=O)=O [Example 20] | 7.29 | 7.40
CNC(=O)c1cnc(Nc2cccc(C)n2)cc1Nc1ccccc1S(C)(=O)=O [Example 21] | 7.29 | 7.52
CNC(=O)c1cnc(Nc2ccc(C)cn2)cc1Nc1ccccc1S(C)(=O)=O [Example 22] | 7.19 | 7.30
CNC(=O)c1cnc(Nc2cc(F)ccn2)cc1Nc1ccccc1S(C)(=O)=O [Example 23] | 6.94 | 7.05
CNC(=O)c1cnc(Nc2cccc(OC)n2)cc1Nc1ccccc1S(C)(=O)=O [Example 24] | 7.45 | 7.40

Compound | pIC50 [1] | pIC50 [2]
CNC(=O)c1cnc(Nc2cc3ccccc3cn2)cc1Nc1ccccc1S(C)(=O)=O [Example 25] | 7.06 | 6.96
CNC(=O)c1cnc(Nc2cc(C(C)=O)ccn2)cc1Nc1ccccc1S(C)(=O)=O [Example 26] | 5.98 | 6.17
CNC(=O)c1cnc(Nc2cccc(C#N)n2)cc1Nc1ccccc1S(C)(=O)=O [Example 27] | 6.42 | 6.74
CNC(=O)c1cnc(Nc2ccc(F)cn2)cc1Nc1ccccc1S(=O)(=O)C(F)(F)F [Example 28] | – | 5.02
CNC(=O)c1cnc(Nc2ccccn2)cc1Nc1ccccc1S(=O)(=O)C(F)(F)F [Example 29] | 5.15 | 5.10
CNC(=O)c1cnc(Nc2cc(C#N)ccn2)cc1Nc1ccccc1S(C)(=O)=O [Example 30] | 6.12 | 6.24
CCS(=O)(=O)c1ccccc1Nc1cc(Nc2ccccn2)ncc1C(=O)NC [Example 31] | 5.73 | 5.91
CCS(=O)(=O)c1ccccc1Nc1cc(Nc2ccc(F)cn2)ncc1C(=O)NC [Example 32] | 5.66 | 5.97
CCS(=O)(=O)c1ccccc1Nc1cc(Nc2cc(C#N)ccn2)ncc1C(=O)NC [Example 33] | 6.21 | 6.18
CNC(=O)c1cnc(Nc2cc(C#N)ccn2)cc1Nc1ccc(F)cc1S(C)(=O)=O [Example 34] | 6.94 | 6.80
CNC(=O)c1cnc(Nc2cc(C#N)ccn2)cc1Nc1cccc(S(C)(=O)=O)c1F [Example 35] | 5.35 | –
CNC(=O)c1cnc(Nc2cccnn2)cc1Nc1ccccc1S(C)(=O)=O [Example 36] | 5.88 | 6.15
CNC(=O)c1cnc(Nc2ccncn2)cc1Nc1ccccc1S(C)(=O)=O [Example 37] | 6.16 | 5.94
CNC(=O)c1cnc(Nc2cnccn2)cc1Nc1ccccc1S(C)(=O)=O [Example 38] | 6.26 | 6.43
CNC(=O)c1cnc(Nc2cnccn2)cc1Nc1ccc(F)cc1S(C)(=O)=O [Example 39] | 5.83 | 5.81
CNC(=O)c1cnc(Nc2cnc(C)cn2)cc1Nc1ccccc1S(C)(=O)=O [Example 40] | 6.89 | 6.89
CNC(=O)c1cnc(Nc2cnc(C#N)cn2)cc1Nc1ccccc1S(C)(=O)=O [Example 41] | 5.21 | 5.72
CNC(=O)c1cnc(Nc2ccc(F)cn2)cc1Nc1ccc(S(C)(=O)=O)cc1OC [Example 44] | 5.90 | 5.84
CNC(=O)c1cnc(Nc2ccccn2)cc1Nc1ccc(S(C)(=O)=O)cc1OC [Example 45] | 5.37 | 5.90
CNC(=O)c1cnc(Nc2ccccn2)cc1Nc1cccc(F)c1S(C)(=O)=O [Example 46] | 5.53 | 5.86
CNC(=O)c1cnc(Nc2ccc(F)cn2)cc1Nc1cccc(F)c1S(C)(=O)=O [Example 47] | 5.62 | 5.77
CNC(=O)c1cnc(Nc2cc(C#N)ccn2)cc1Nc1cccc(F)c1S(C)(=O)=O [Example 48] | 5.79 | 6.02
CNC(=O)c1cnc(Nc2cc(C)ccn2)cc1Nc1cccc(F)c1S(C)(=O)=O [Example 49] | 6.39 | 6.27

Compound | pIC50 [1] | pIC50 [2]
CNC(=O)c1cnc(Nc2cc(F)ccn2)cc1Nc1cccc(F)c1S(C)(=O)=O [Example 50] | 5.81 | 5.70
CNC(=O)c1cnc(Nc2cc(F)ccn2)cc1Nc1ccc(F)cc1S(C)(=O)=O [Example 51] | 6.57 | 6.70
CNC(=O)c1cnc(Nc2cc(C)ccn2)cc1Nc1ccc(F)cc1S(C)(=O)=O [Example 52] | 6.70 | 7.05
CNC(=O)c1cnc(Nc2ccccn2)cc1Nc1cc(F)ccc1S(C)(=O)=O [Example 53] | 7.05 | 7.10
CNC(=O)c1cnc(Nc2cccc(F)n2)cc1Nc1cc(F)ccc1S(C)(=O)=O [Example 54] | 6.72 | 6.80
CNC(=O)c1cnc(Nc2ccc(F)cn2)cc1Nc1cc(F)ccc1S(C)(=O)=O [Example 55] | 6.89 | 6.77
CNC(=O)c1cnc(Nc2cc(C)ccn2)cc1Nc1cc(F)ccc1S(C)(=O)=O [Example 56] | 6.92 | 7.30
CNC(=O)c1cnc(Nc2cc(F)ccn2)cc1Nc1cc(F)ccc1S(C)(=O)=O [Example 57] | 6.80 | 6.72
CNC(=O)c1cnc(Nc2cc(C#N)ccn2)cc1Nc1cc(F)ccc1S(C)(=O)=O [Example 58] | 6.66 | 6.85
CNC(=O)c1cnc(Nc2ccc(C(F)(F)F)cn2)cc1Nc1ccccc1S(C)(=O)=O [Example 59] | 6.43 | 6.92
CNC(=O)c1cnc(Nc2cc(C)c(F)cn2)cc1Nc1ccccc1S(C)(=O)=O [Example 60] | 7.22 | 7.40
CNC(=O)c1cnc(Nc2ccc(F)cn2)cc1Nc1ccccc1C(N)=O [Example 63] | 6.11 | 6.39
CNC(=O)c1cnc(Nc2ccc(F)cn2)cc1Nc1cc(F)ccc1F [Example 64] | 5.23 | 5.04
CNC(=O)c1cnc(Nc2ccc(F)cn2)cc1Nc1ccccc1SC [Example 65] | 6.32 | 6.43
CNC(=O)c1cnc(Nc2ccc(C(N)=O)cn2)cc1Nc1ccccc1C(N)=O [Example 93] | 6.33 | –
CNC(=O)c1cnc(Nc2cc(C#N)ccn2)cc1Nc1cccc(C)c1C(N)=O [Example 177] | 6.41 | –
CNC(=O)c1cnc(Nc2ccc(C(F)(F)F)cn2)cc1Nc1ccccc1C(C)(C)O [Example 181] | 5.21 | –
CNC(=O)c1cnc(Nc2cccnn2)cc1Nc1ccccc1C(C)(C)O [Example 182] | 5.05 | –
CNC(=O)c1cnc(Nc2ccc(F)cn2)cc1Nc1ccc(F)cc1C [Example 189] | – | 5.03
CNC(=O)c1cnc(Nc2ccc(F)cn2)cc1Nc1cccc(OC)c1 [Example 202] | – | 5.18
CNC(=O)c1cnc(Nc2ccc(F)cn2)cc1Nc1cc2ccccc2cc1C(N)=O [Example 253] | – | 6.36
CNC(=O)c1cnc(Nc2cc(S(C)(=O)=O)ccn2)cc1Nc1cccc(F)c1OC [Example 282] | 6.29 | –
